# Several values for one entry are separate records, joined by “and”; a condition that tells them apart may be missing. Identical values can stand only once. Marks after values point to notes of the source that are not given here.
# How the values were obtained:
# [1] = tested on: laser-induced CNV in monkeys; test: Laser-induced choroidal neovascularization in monkeys, fluorescein angiography lesion grading; assay type: in vivo, cynomolgus monkeys (Macaca fascicularis); conditions: for Incidence of CNV lesions, Lesion Grade I (% Total) / Incidence of CNV lesions, Lesion Grade II (% Total) / Incidence of CNV lesions, Lesion Grade III (% Total) / Incidence of CNV lesions, Lesion Grade IV (% Total): intravitreal, both eyes, days 1 and 15, 1.5 mg/eye (Lucentis 0.5 mg/eye); for Overall grade IV lesions versus vehicle control group: all time points together, Chi square test; for Incidence of grade IV lesions compared to vehicle control: days 22, 29 and 37, 1.5 mg/eye in oil formulation; for Overall Grade IV lesions (%): days 22, 29 and 37 summed, 1.5 mg/eye intravitreal days 1 and 15
# Experimental: Study was performed in three phases. In phases Ia and Ib, the behavior of the suspension in aqueous (Ia) and oil (Ib) formulations, and multiple dosing regimens as well as any adverse effect due to multiple dosing at 3 mg/eye (Ia) or 1.5 (Ib) were investigated. In phase II test articles were administered twice during the study period on days 1 and 15. Eyes were examined with an indirect ophthalmoscope and fundus camera.
# Adult male cynomolgus monkeys (Macaca fascicularis) age 2-7 years old were used to test the efficacy of BOL-303050-X, BOL-303054-X and BOL-303055-X. Lucentis® (ranibizumab) was used as historic control.
# Both eyes of 46 monkeys were examined at baseline and then 42 animals were randomized into 5 groups. On Phase II Day 8 of Dosing, the animals were anesthetized with ketamine and dexmedetomidine and the macula of each eye of the animals in Groups 1 through […] underwent laser treatment by a retinal surgeon with a 532 nm diode green laser (OcuLight GL, IRIDEX Corp. Inc., Mountain View, Calif.) using a slit lamp delivery system and a Kaufman-Wallow (Ocular Instruments Inc, Bellevue, Wash.) plano fundus contact lens with Gonak (2.5%) as the coupling agent. Nine laser spot areas were symmetrically placed in the macula of each eye. The laser parameters included a 75 micron spot size and 0.1 second duration. The power setting used was assessed by the ability to produce a blister and a small hemorrhage. […] For areas not adjacent to the fovea, the initial power setting was 500 mW; if a second spot was placed, the power was set to 650 mW. For the area adjacent to the fovea the power settings were 400 mW (initial treatment) and 550 mW (second treatment). At the discretion of the retinal surgeon, power settings were adjusted based on observations at the time of laser. Power setting used for each spot was documented as well as number of burns per spot and whether hemorrhage occurred.
# Once the phase Ib study was completed, and it was established that the drug suspension in oil would not interfere with either laser administration, evaluation of CNV or cause adverse effects, phase II was initiated. On days 1, and 15 both eyes of monkeys received 50 μL of Lucentis (0.5 mg/eye), vehicle (0 mg/eye), BOL-303050-X (1.5 mg/eye), BOL-303054-X (1.5 mg/eye) or BOL-303055-X (1.5 mg/eye) (Table 2). Intravitreous injection was performed for each by eye aiming towards mid-vitreous body. Dosing in the right eye was alternated for successive doses (as applicable) at approximately the 11 o'clock and 10 o'clock positions. Dosing in the left eye was alternated for successive doses (as applicable) from approximately the 1 o'clock and 2 o'clock positions.
# Animals were anesthetized with ketamine and dexmedetomidine. A topical anesthetic (0.5% proparacaine) was instilled in each eye before dose administration. A wire speculum was used to retract the eyelids. The eyes were cleaned with a 2.5% povidone iodine solution and then rinsed with sterile saline. Each animal was dosed using 1 cc tuberculin syringes and 30 gauge needles.
# FA was performed at baseline, on days 22, 29 and 37 (approximately 14, 21 and 28 days post-laser). Digital ocular photographs were taken in conjunction with FA. The FA procedure is well known by people skilled in the art of ophthalmology.
# Evaluation of FA was done according to the following grading system for evidence of excessive permeability (fluorescein leakage) or any other abnormalities.
# Grade IV lesions are considered to be clinically significant as these most closely resemble the active forms of classical CNV seen in various human retinal disorders, including age-related macular degeneration. Comparison of the incidence of Grade IV lesions between treatment groups was evaluated.
# Grade IV lesions were analyzed using either Fisher's exact probability test (2-Tail) or Chi square test (χ2). […]
# [2] = Ocular clinical findings in rats 14 days after intravitreal injection
# Experimental: The anterior segment of the eye was examined using a slit-lamp biomicroscopy for excluding any animals with abnormalities that might interfere with the study. Fundus photography and fluorescein angiography (FA) were performed to document the health of the retina and the ocular circulation using a TRC 50EX fundus camera (Topcon). For FA, 10% sodium fluorescein was injected intravenously (50 mg/kg of body weight) through the tail vein or the vein under the incisor before the procedure.
# Immediately after placement of laser photocoagulation, the experimental eyes received an intravitreal injection of either a compound or a vehicle as described in Table 5. Following the disinfection of ocular surface with 5% betadine and 0.9% saline solutions, the injections were performed with aid of a surgical microscope using 0.3 mL syringes with a 31-gauge ½-inch long needle (Ultra-Fine II™ Insulin syringe, BD, Franklin Lakes, N.J.).
# Two weeks after photocoagulation, all rats were examined under anesthesia and pupil dilation with slit-lamp biomicroscopy, fundus photography and FA as described in the baseline examination.
# [3] = Day 14, 200 μg/eye intravitreal
SMILES,"Incidence of CNV lesions, Lesion Grade I (% Total) ([1]; Day 22)","Incidence of CNV lesions, Lesion Grade II (% Total) ([1]; Day 22)","Incidence of CNV lesions, Lesion Grade III (% Total) ([1]; Day 22)","Incidence of CNV lesions, Lesion Grade IV (% Total) ([1]; Day 22)","Incidence of CNV lesions, Lesion Grade I (% Total) ([1]; Day 29)","Incidence of CNV lesions, Lesion Grade II (% Total) ([1]; Day 29)","Incidence of CNV lesions, Lesion Grade III (% Total) ([1]; Day 29)","Incidence of CNV lesions, Lesion Grade IV (% Total) ([1]; Day 29)","Incidence of CNV lesions, Lesion Grade I (% Total) ([1]; Day 37)","Incidence of CNV lesions, Lesion Grade II (% Total) ([1]; Day 37)","Incidence of CNV lesions, Lesion Grade III (% Total) ([1]; Day 37)","Incidence of CNV lesions, Lesion Grade IV (% Total) ([1]; Day 37)",Overall grade IV lesions versus vehicle control group [1],Incidence of grade IV lesions compared to vehicle control [1],Overall Grade IV lesions (%) [1],"Eyes with anterior chamber inflammation/Total eyes [2, 3]","Eyes with retinal vascular congestion/vessel-observable eyes [2, 3]",Intraocular inflammation and retinal vascular congestion ([2]; Day 14 after intravitreal injection),"Posterior synechiae of iris [2, 3]"
COc1ccc(S(=O)(=O)N[C@@H](CNc2nc(C)nc(N3CCC(c4ccc5c(n4)NCCC5)CC3)c2C)C(=O)O)cc1 [BOL-303050-X],126:148 (85.14) %,12:148 (8.11) %,4:148 (2.70) %,4.05% and 6:148 (4.05) %,132:150 (88.00) %,11:150 (7.33) %,3:150 (2.00) %,2.67% and 4:150 (2.67) %,136:162 (83.95) %,15:162 (9.26) %,8:162 (4.94) %,1.85% and 3:162 (1.85) %,significantly reduced,reduced compared to vehicle-treated eyes,(2.83)* %,0/6,0/5,Neither inflammation nor retinal vascular congestion was observed,
CCc1nc(NC[C@H](NC(=O)OCc2ccccc2)C(=O)O)c(C)c(N2CCC(c3ccc4c(n3)NCCC4)CC2)n1 [BOL-303055-X],73:162 (45.06) %,6:162 (3.7) %,6:162 (3.70) %,47.53% and 77:162 (47.53) %,75:162 (46.3) %,5:162 (3.09) %,12:162 (7.41) %,43.21% and 70:162 (43.21) %,80:162 (49.38) %,7:162 (4.32) %,5:162 (3.68) %,44.44% and 72:162 (44.44) %,significantly increased,higher incidences of grade IV lesions compared to the vehicle control,(45.06)* %,5/6,2/2,,Posterior synechiae of iris occurred in several eyes
COc1c(NC[C@H](NC(=O)OCc2ccccc2)C(=O)O)ncnc1N1CCC(c2ccc3c(n2)NCCC3)CC1 [BOL-303054-X],79:133 (59.40) %,1:133 (0.75) %,8:133 (6.01) %,45:133 (33.83) %,80:133 (60.15) %,5:133 (3.76) %,2:133 (1.50) %,46:133 (34.59) %,83:136 (61.03) %,6:136 (4.41) %,5:136 (3.68) %,41:136 (30.15) %,not statistically significant,higher incidences of grade IV lesions compared to the vehicle control,(32.84) %,4/6,4/5,,
